Data set [1] deals with RES-LTC chondrosarcoma cell line. The data set can be described thus: Modified MTT assay for metabolic activity. Type of data set: cell-based. To be noted: 48 hour timepoint; for MTT metabolic activity: FIG. 3. How it is done: Assays: Modified MTT assay for metabolic activity (absorbance).
(§1) Assay data analysis: Expressed as % of the positive controls for MTT and picogreen. MTT absorbance measures then normalized to the μgDNA/ml generated by the picogreen assay.
(§2) Cell cultures: RES-LTC chondrosarcoma cell line. Expresses hyaline-like chondrocyte phenotype and reliably produces large, homogeneous cell populations
(§3) Cell cultures in 96 well plates. Each compound, at a fixed concentration, was added in triplicate for each assay. MTT and picogreen assays in separate plates (assays interfere with each other). All plates treated together. Assays run at 48 hour timepoint. Microscopy performed to confirm findings.
On the technique in general: Tetrazolium dyes change colour on reduction, which living cells bring about.

Data set [2] shares this test system. The experiment in a line: Quantitative picogreen assay for cell proliferation. Type of data set: cell-based. The conditions noted are these: 10 mM, 48 hour timepoint, FIG. 4. How it is done:
Quantitative picogreen for cell proliferation (μgDNA/ml).
as §1, §2, §3

For data set [3], the system named is rabbit stifle joints. The experiment in a line: Single intra-articular injection toxicity model in rabbit stifles. The class given is in vivo, New Zealand White rabbits. The conditions noted are these: for Synovial inflammation scoring: versus PBS-injected stifles, FIG. 7. From the text:
Rabbits were euthanized two weeks post-injection. Both left and right stifles were harvested and immediately fixed in 10% neutral buffered formalin, then set for histological processing. Five-micron thick slides from each knee were stained with Hematoxylin & Eosin and Safranin-O.

For data set [4], the system named is glycosaminoglycans (GAG) in the cartilage. The experiment in a line: T1 value map versus Safranin-O/fast green histology of cartilage-bone plug equilibrated in contrast agent (GAG targeting). The conditions noted are these: human tibial plateau cartilage-bone plug equilibrated in contrast agent. From the text:
Cartilage-bone plug excised from a human tibial plateau that was retrieved from total knee replacement surgery was equilibrated in DAB-4 linked nitroxide citrate. T1 value map (as acquired for FIG. 1) is compared to histology in FIG. 2: • a) T1 value map: orange color is lower T1 value indicating more contrast agent and more glycosaminoglycans (GAG) in the cartilage. • b) Histology of the same specimen stained with Safranin-O/fast green.

Data set [5] relates to human knee. To be noted: 10 minutes after intraarticular injection of 25 ml of 5 mM solution in PBS, 3 Tesla, FIG. 9. The procedure: Coronal T1-weighted MR images of a human knee were taken in a human cadaver. Coronal T1-weighted MR contrast images were also taken ex vivo in a human cadaver 10 minutes after intraarticular injection of 25 ml of a 5 mM solution of DAB-4 citrate diluted in PBS. […] All images were performed on a Siemens Skyra 3 Tesla magnet using a 15 channel transmit/receive QED knee coil. (14 cm FOV (field of view); 3 mm thick slice; 384×384 matrix; TR 800 ms; TE 8.6 ms; Turbo factor of 2; receiver bandwidth 350 Hz/pixel.)

[6] abbreviates: two weeks post-injection, histology.

As for `CNC[C@H](O)[C@@H](O)[C@H](O)[C@H](O)CO.CNC[C@H](O)[C@@H](O)[C@H](O)[C@H](O)CO.O=C([O-])CN(CCN(CC(=O)[O-])CC(=O)O)CCN(CC(=O)[O-])CC(=O)O.[Gd+3]` [Magnevist], the “MTT data normalized to μgDNA/ml (health of the cells)” value in data set [1] (10 mM, FIG. 5) is “abnormally high”. For the same compound, the Picogreen cell proliferation entry in data set [2] is “low cell proliferation”. Moreover, the “clinical signs of inflammation or lameness” value in data set [3] (single intra-articular injection, two weeks observation) is “No animals presented clinical signs of inflammation or lameness”. The “Modified Mankin scoring (structural damage / joint degeneration)” value in data set [3] (two weeks post-injection, histology, FIG. 6) is “did not uncover any signs of structural damage and/or degenerative response”. Moreover, the Synovial inflammation scoring result in data set [3] (setting [6]) is “no difference between Magnevist or DAB-4 linked nitroxide and the PBS-injected stifles”.

In the case of “Citric Acid Salt of DAB-4 Linked Nitroxide [DAB-4 linked nitroxide citrate]”, in data set [4], the “agreement of T1 value map with histology stain for GAG concentration” value was “high GAG concentration in the same areas indicated by DAB-4 linked nitroxide on the T1 value map and the stain on the histology map”. In data set [5], the “T1-weighted MR contrast of joint fluid and cartilage surfaces” value is “the joint fluid (asterisk) is now bright and outlines the cartilage surfaces”; the “detection of cartilage defect on T1-weighted MR image” value was “A partial thickness cartilage defect (arrow) is easily identified”.

With “DAB-dendrimer-(NH-3-CO-PROXYL)4 [DAB-4 linked nitroxide]”, the “agreement of T1 value map with histology stain for GAG concentration” value in data set [4] was “high GAG concentration in the same areas as indicated by DAB-4 linked nitroxide on the T1 value map and the stain on the histology map”. Also, in data set [1] (1-10 mM), the MTT metabolic activity entry is listed as “less metabolic activity than positive controls but greater than for DAB-8 linked nitroxide”. For the same compound, the Synovial inflammation scoring result in data set [3] (setting [6]) is “no difference between Magnevist or DAB-4 linked nitroxide and the PBS-injected stifles”.

As for “DAB-dendrimer-(NH-3-CO-PROXYL)8 [DAB-8 linked nitroxide]”, the MTT metabolic activity result in data set [1] (concentrations above 1 mM) is “less metabolic activity than positive controls (untreated), or DAB-4 linked nitroxide and Magnevist”.

Source of the values: patent US9943613B2 (priority 2012, dated 2018).
